The record followed here is US4912092A, “Methods for increasing extracellular adenosine and for stabilizing mast cells” (The Regents of the University of California, priority 1987, dated 1990).

The structures appear in SMILES notation.

In data set [1] the test system is myocardial infarct. As to the kind of experiment: Myocardial infarct size after tying off the left anterior descending coronary artery. It counts as in vivo, rat. Conditions: bolus then osmotic mini-pump infusion, three weeks; p<0.05. The source says: The animals were continuously exposed by infusion of either AICA riboside in saline or saline using osmotic mini-pumps well known to those in the art. After three weeks, the rats were sacrificed and infarct size quantitated by planimarizing stained sections of fixed hearts.

Data set [2] has as its system isuprel-induced arrhythmias. In words: Isoproterenol (isuprel)-induced arrhythmias. The data set is classed as in vivo, rat. Particulars: 1000 mg/kg intraperitoneally. The method, then: Five minutes later both animals were anesthetized with 330 mg/kg of chloral hydrate injected intraperitoneally. Then a single EKG lead was attached to each rat for simultaneous recording of the paired rats' electrocardiograms. To produce arrhythmia, each rat was injected subcutaneously with isuprel […].
Beginning 30 minutes after isuprel introduction, the electrocardiograph recording paper speed was run (5 cm/sec) for 10 minutes to count the arrhythmic beats of both animals.

Data set [3] in a line: Plasma, CSF, erythrocyte and urine measurements in the patient trial. The data set is classed as in vivo, human. The source says:
Following authorization, therapeutic trials with AICA riboside were started in two patients with adenylosuccinase deficiency (autism). […] On Day 55, both patients were briefly readmitted for clinical, biochemical and psychiatric evaluation. […] Treatment was maintained until Day 71, and arrested at that date.
A correct assessment of the renal loss of the nucleoside could not be obtained.

Data set [4] relates to inosine. In words: Venous inosine levels during coronary artery occlusion in dogs. It counts as in vivo, dog. Particulars: over the 60-minute assay period (FIG. 5). The method, then: (§1) Thirteen mongrel dogs were anesthetized with phenobarbital. […] C.V. Dis. 20; 55 (1977). […] Two of the surviving saline-treated animals fibrillated. […] The range was 4.4 to 100 μM.
That the increase in the levels of adenosine is due, at least in part, to a reduction in the amount of ATP that is converted to inosine was shown by analysis of venous blood from dogs in Example III for inosine levels.

In data set [5] the test system is ischemic myocardium. In words: Regional myocardial blood flow during coronary artery occlusion (radiolabelled microspheres). It counts as in vivo, dog. The text has this: FIG. 4. […] The means plus the standard deviations are graphed. […] Thirteen mongrel dogs were anesthetized with phenobarbital. […] C.V. Dis. 20; 55 (1977).
The test system of data set [6] is adenosine. In words: Coronary venous adenosine concentrations during coronary artery occlusion in dogs. It counts as in vivo, dog. The procedure: FIG. 3. […] Coronary venous blood was collected into chilled 2N perchloric acid at various times before and after coronary artery occlusion. Supernatants from these extracts were neutralized with alamine and freon and evaluated by high performance liquid chromotography.
as §1

The mark [7] stands for this setting: one hour after intravenous administration.

In the case of `NC(=O)c1ncn([C@@H]2O[C@H](CO)[C@@H](O)[C@H]2O)c1N` [AICA riboside, 5-amino-4-imidazolecarboxamide riboside], in data set [1], the “reduction of infarct size compared to saline-treated controls” value worked out at 33%. In data set [2], the “reduction in paroxysmal ventricular contractions” value is listed as 39% and the ventricular fibrillation result is recorded as “complete suppression”. For the same compound, in data set [3] (all dosages used, oral 5 to 2×10 mg/kg/day and intravenous 20 mg/kg/day), the “AICA riboside in plasma and CSF” value is reported as “could not be detected”. Besides, in data set [3] (setting [7]), the “AICA riboside in plasma” value is “undetectable in plasma” and the “AICA riboside triphosphate in the erythrocytes” value is given as “had similarly accumulated in the erythrocytes”. Besides, the “concentrations of AICA riboside triphosphate reached in erythrocytes” value in data set [3] (oral as well as intravenous administration) is reported as “of the same magnitude as those of GTP”. The “inosine levels in venous blood versus saline” value in data set [4] is on record as “more than twofold decrease”. For the same compound, the “regional myocardial blood flow to the ischemic myocardium versus saline” value in data set [5] (5 and 60 minutes of occlusion) is on record as “significantly greater”. Further, the “flow to normal (non-ischemic) myocardium” value in data set [5] (dog, in vivo) is “did not alter flow to normal myocardium”. Further, in data set [5] (dogs of Example IX), the “collateral blood flow versus saline (radiolabelled microspheres)” value is reported as “significantly greater”. In addition, in data set [6] (1 minute after reperfusion), the “adenosine washout on reperfusion” value is recorded as “significant rise”. For the same compound, in data set [6] (1 minute of ischemia, saline peak 0.22 +/-0.08 at 10 minutes), the “peak adenosine level, coronary venous blood” value is 1.79 ± 0.35 µM. The “adenosine level, coronary venous blood” value in data set [6] (60 minutes of ischemia, saline undetectable) came to 0.18 ± 0.15 µM. Moreover, the “venous adenosine prior to ischemia” value in data set [6] (before and during infusion) was under 0.01 µM. Also, in data set [6] (dog, in vivo), the “adenosine in blood from the right atrium (systemic blood)” value was “no detectable adenosine”.
